ChEMBL document CHEMBL1153069, “Isolation, enzyme-bound structure and antibacterial activity of platencin A1 from Streptomyces platensis” (Bioorg Med Chem Lett, 2009)
Values after ≈ are worked out from the molar mass of the structure shown. Active and inactive are the calls of the source. The rule behind the calls is not given here.

Assays:
[1] = Inhibition of FAS2 in Staphylococcus aureus assessed as inhibition of fatty acid synthesis by scintillation counting
[2] = system: Staphylococcus aureus; experiment: Antibacterial activity against Staphylococcus aureus assessed as minimum concentration required to differential zone of clearance between antisense plate compared to control; type: functional
[3] = Inhibition of Escherichia coli FabF C163F
[4] = system: Staphylococcus aureus; experiment: Inhibition of FAS2 in Staphylococcus aureus assessed as inhibition of fatty acid synthesis at 167 ug/ml
[5] = system: Staphylococcus aureus; experiment: Antibacterial activity against Staphylococcus aureus Smith at 64 ug/mL; type: functional, organism-based
[6] = system: Enterococcus faecalis; experiment: Antibacterial activity against Enterococcus faecalis CL8516 at 64 ug/mL; type: functional, organism-based
[7] = system: Streptococcus pneumoniae; experiment: Antibacterial activity against Streptococcus pneumoniae CL2883 at 64 ug/mL; type: functional, organism-based
[8] = Inhibition of FabH in Staphylococcus aureus assessed as inhibition of fatty acid synthesis
[9] = system: Staphylococcus aureus; experiment: Antibacterial activity against Staphylococcus aureus Smith; type: functional
[10] = system: Enterococcus faecalis; experiment: Antibacterial activity against Enterococcus faecalis CL8516; type: functional
[11] = system: Streptococcus pneumoniae; experiment: Antibacterial activity against Streptococcus pneumoniae CL2883; type: functional

| SMILES | IC50 [1] | Activity [2] | Activity [4] | Activity [5] | Activity [6] | Activity [7] | other results |
| --- | --- | --- | --- | --- | --- | --- | --- |
| CC12C[C@@]34C=CC(=O)[C@@](C)(CCC(=O)Nc5c(O)ccc(C(=O)O)c5O)C3[C@H](CC1C4)O2 (stereo partly drawn) [PLATENSIMYCIN] | 0.5 mg/L (≈ 1.13 µM) |  |  |  |  |  |  |
| C=C1C[C@@]23C=CC(=O)[C@@](C)(CCC(=O)Nc4c(O)ccc(C(=O)O)c4O)[C@@H]2C[C@@H]1CC3 [PLATENCIN] | 12 mg/L (≈ 28.2 µM) | 0.2 µg/mL |  |  |  |  | IC50 [3]: 0.113 µM |
| C=C1C[C@@]23C=CC(=O)[C@@](C)(CCC(=O)Nc4c(O)ccc(C(=O)OC)c4O)C2C[C@@H]1C[C@H]3O (stereo partly drawn) |  |  | inactive | inactive | inactive | inactive |  |
| C=C1C[C@@]23C=CC(=O)[C@@](C)(CCC(=O)Nc4c(O)ccc(C(=O)O)c4O)C2C[C@@H]1C[C@H]3O (stereo partly drawn) | 7.12 mg/L (≈ 16.1 µM) | 20 µg/mL |  |  |  |  | IC50 [8]: 15 mg/L (≈ 34 µM); MIC [9]: 32 mg/L (≈ 72.5 µM); MIC [10]: 8 mg/L (≈ 18.1 µM); MIC [11]: > 64 mg/L |
| C=C1C[C@@]23C=CC(=O)[C@@](C)(CCC(=O)OC)C2C[C@@H]1C[C@H]3O (stereo partly drawn) |  |  | inactive | inactive | inactive | inactive |  |
